pEC50: −log10 of the molar value.
Experiments:
PxOctβ3 [1] = target: T1, PxOctβ3 (Plutella xylostella, UniProt Z9TZ33AL48); test: intracellular cAMP assay, HEK-293 cells stably expressing the receptor; assay type: cell-based
T1 construct: pcDNA3.1-PxOctβ3 stably expressed in HEK-293 cells; ORF also cloned in pEGFP-N1

PxOctβ3 [2] = target: T1, PxOctβ3; test: as above; assay type: cell-based; conditions: agonist; 1 nM-100 μM; b43 prints approximately 65 nM

Row | SMILES | fold cAMP at 10 μM (PxOctβ3 [1]; weak agonist) | fold cAMP at 10 μM (PxOctβ3 [1]; agonist) | other results
1 | Clc1cccc(Cl)c1NC1=NCCN1 [clonidine] | clonidine, amitraz, and 2-phenylethylamine were barely effective agonists |  | 
2 | NCCc1ccc(O)c(O)c1 [dopamine] |  | 2.3 fold | 
3 | NC[C@H](O)c1ccc(O)cc1 [octopamine] |  |  | pEC50 (PxOctβ3 [2]): 7.19
4 | NCCc1ccccc1 [2-phenylethylamine] | clonidine, amitraz, and 2-phenylethylamine were barely effective agonists |  | 
5 | Cc1ccc(/N=C/N(C)/C=N/c2ccc(C)cc2C)c(C)c1 [amitraz] | clonidine, amitraz, and 2-phenylethylamine were barely effective agonists |  | 
6 | NCCc1ccc(O)cc1 [tyramine] |  | 9.6 fold | 

Reference: PMC9409995, “Pharmacological Properties and Function of the PxOctβ3 Octopamine Receptor in Plutella xylostella (L.)” (Insects, 2022)
